Results: patent US20250163150A1, “COMBINATION THERAPIES COMPRISING A KRAS INHIBITOR FOR THE TREATMENT OF CANCER” (I-Mab Biopharma US Limited, priority 2022, published 2025)

Columns and labels:
[1] = test system: human NCI-H358 non-small cell lung cancer (NSCLC) tumor xenografts (KRAS G12C); experiment: In vivo anti-tumor efficacy in mice bearing NCI-H358 NSCLC tumor xenografts; parameters: species or system CB17 SCID mice; conditions: 1 mg/kg QD (AMG-510 p.o., TJC4 i.p.), tumor size over 15 days, FIG. 1
Experimental: The anti-tumor efficacy of anti-CD47 antibody TJC4 in combination with the KRAS G12C inhibitor AMG-510 was assessed in mice bearing human NCI-H358 non-small cell lung cancer (NSCLC) tumor xenografts. The NCI-H358 cell line, which was established from a chemotherapy-naïve NSCLC tumor, harbors a KRAS G12C mutation. TJC4 is an exemplary anti-CD47 antibody that comprises a VH that comprises SEQ ID NO: 1, a VL that comprises SEQ ID NO: 2, and a human IgG4 Fe region that comprises an S228P substitution (EU numbering). AMG-510 is also known as Sotorasib. KRAS G12C mutations, which are common in NSCLC, lead to constitutive activation of the tumor growth-promoting RAS/MAPK signaling pathway. […]
Each animal's tumor size was measured three times per week for 15 days. Tumor size was calculated as V=0.5L×W^2, where L and W indicate long and short diameters of the tumor, respectively. Anti-tumor efficacy of the drugs was also analyzed by TGI % (percentage of tumor growth inhibition). TGI % was calculated as: […]
where TRTV is treatment group RTV, and CRTV is control group RTV. RTV=VN/V1, where V1 is the mean tumor volume measured on Day 1 of administration, and VN is the mean tumor volume measured on Day N of administration.
The synergy of the combination of TJC4 and AMG-510 was calculated as: […]

[2] = test system: NCI-H358 human NSCLC tumor cells (KRAS G12C); experiment: In vitro phagocytosis of NCI-H358 tumor cells by M0 macrophages (IncuCyte pHrodo); type: cell-based; conditions: AMG 510 pre-treatment 0.1, 1 or 10 μm 24 hours, then M0 macrophage 1:1 and 1 μg/ml TJC4 3-6 hours, FIG. 4A-4C
Experimental: The following experiments were performed to assess the effects of anti-CD47 antibody TJC4 in combination with the KRAS G12C inhibitor AMG-510 on the in vitro phagocytosis of NCI-H358 human NSCLC tumor cells. As discussed in Example 1, NCI-H358 cells bear the KRAS G12C mutation. The in vitro phagocytosis assays were performed by co-culturing M0 macrophage cells with INCUCYTE® PHRODO®-labeled NCI-H358 tumor cells. Briefly, prior to co-culture, NCI-H358 cells were pre-treated with AMG 510 at the concentrations of 0 μm, 0.1 μm, 1 μm, or 10 μm for 24 hours. The NCI-H358 cells were further incubated with M0 macrophage (at a ratio of 1:1) and 1 μg/ml TJC4 for 3-6 hours. The NCI-H358 cells were then subject to INCUCYTE® ZOOM Live-Cell Imaging System analysis, and the percentage of phagocytosed NCI-H358 was calculated.
Synergy of the combination of AMG 510 and TJC4 in inducing phagocytosis was calculated as: […]
An F value≥1.00 indicates a synergistic effect between AMG-510 and TJC4.

KRAS G12D mutant protein = KRAS G12D mutant protein (Homo sapiens, UniProt P01116, G12D); conditions: Wang et al. (2022) J Med Chem; cited from earlier work
[3] = test system: LS180 human colon adenocarcinoma cells (KRAS G12D); experiment: In vitro phagocytosis of LS180 colon cancer cells by macrophages (flow cytometry); type: cell-based; conditions: MRTX1133 100 nM, TJC4 0.5 μg/ml, 24 hours; co-culture 2 hours; combination compared to either agent alone, FIG. 5B
Experimental: LS180 human colon adenocarcinoma cells, which harbor the KRAS G12D mutation were incubated with (a) DMSO, (b) the KRAS G12D inhibitor MRTX1133 (100 nM), (c) anti-CD47 antibody TJC4 (0.5 μg/ml), or (d) MRTX1133 (100 nM)+TJC4 (0.5 μg/ml) for 24 hours and then labeled with 2.5 μM carboxyfluorescein succinimidyl ester (CFSE) for 10 minutes at 37° C. Macrophage cells, which were obtained by human THP-1 leukemia monocyte cells with lipopolysaccharide (LPS) for 24 hours, were cultured in a serum free medium for 2 hours and then added to 2×10^5 CFSE-labeled LS180 cells. The macrophages and the LS180 cells were co-cultured at 37° C. for 2 hours. Macrophages were then stained with an APC-labeled anti-F4/80 antibody, and CFSE+ F4/80+ cells were detected by flow cytometry (10,000 cells analyzed in each sample). The percentage of macrophage-phagocytosed LS180 cells was calculated by dividing the number of CFSE+ F4/80+ cells (see the top right quadrant, i.e., Q2, of each flow cytometry histogram in FIG. 5A) by the number CFSE+ cells (see the top left and right quadrants, i.e., Q1 and Q2, respectively) of each flow cytometry histogram in FIG. 5A). In other words, macrophage-phagocytosed LS180 cells (%)=[Q2/(Q1+Q2)]×100%.

[4] = test system: human LS180 colon adenocarcinoma tumor xenografts; experiment: In vivo anti-tumor efficacy in mice bearing LS180 colon adenocarcinoma xenografts (bioluminescence imaging); parameters: species or system BALB/c nude mice; conditions: MRTX1133 20 mg/kg, TJC4 1 mg/kg, intraperitoneally twice a week for four weeks, FIG. 7B
Experimental: The anti-tumor efficacy of anti-CD47 antibody TJC4 in combination with the KRAS G12D inhibitor MRTZ1133 was assessed in mice bearing human LS180 colon adenocarcinoma tumor xenografts. Briefly, 5×10^5 LS180 cells were injected into the cecal walls of BALB/c nude mice. Tumors formed and grew stably after 2 weeks. Mice were given one of the following treatments for four weeks: (a) PBS (control); (b) TJC4 (1 mg/kg, intraperitoneally twice a week); (c) MRTX1133 (20 mg/kg, intraperitoneally twice a week); or (d) MRTX1133 (20 mg/kg, intraperitoneally twice a week)+TJC4 (1 mg/kg, intraperitoneally twice a week). Tumor growth was evaluated by Bioluminescence imaging (BLI) every week.

[5] = test system: LS180 human colon adenocarcinoma cells; experiment: Apoptosis of LS180 cells (FITC-Annexin V / PI flow cytometry); type: cell-based; conditions: MRTX1133 100 nM, TJC4 0.5 μg/ml, 24 hours; combination compared to either agent alone, FIG. 6A/6B
Experimental: LS180 human colon adenocarcinoma cells were incubated with (a) DMSO, (b) the KRAS G12D inhibitor MRTX1133 (100 nM), (c) anti-CD47 antibody TJC4 (0.5 μg/ml), or (d) MRTX1133 (100 nM)+TJC4 (0.5 μg/ml) for 24 hours and then labeled with fluorescein isothiocyanate (FITC)-Annexin V and propidium iodide (PI). Annexin V (or Annexin A5) is a member of the annexin family of intracellular proteins that binds to phosphatidylserine (PS) in a calcium-dependent manner. PS is normally only found on the intracellular leaflet of the plasma membrane in healthy cells, but during early apoptosis, membrane asymmetry is lost, and PS translocates to the external leaflet. FITC-labeled Annexin V can then be used to specifically target and identify apoptotic cells. PI a cell impermeable nucleic acid intercalating dye. Following staining, the cells were analyzed via flow cytometry.

Row | Molecule | tumor growth inhibition as compared to mice treated with PBS control [1] | TJC4-mediated phagocytosis of NCI-H358 by macrophages [2] | specificity to the KRAS G12D mutant protein relative to wild-type KRAS (KRAS G12D mutant protein) | phagocytosis of LS180 cells by macrophages [3] | tumor growth (bioluminescence imaging) [4] | apoptosis of LS180 cells [5]
1 | C=CC(=O)N1CCN(c2nc(=O)n(-c3c(C)ccnc3C(C)C)c3nc(-c4c(O)cccc4F)c(F)cc23)[C@@H](C)C1 [AMG-510, 6-Fluoro-7-(2-fluoro-6-hydroxyphenyl)-(1M)-1-[4-methyl-2-(propan-2-yl)pyridin-3-yl]-4-[(2S)-2-methyl-4-(prop-2-enoyl)piperazin-1-yl]pyrido[2,3-d]pyrimidin-2(1H)-one] | did not demonstrate tumor growth inhibition | enhanced | – | – | – | –
2 | C#Cc1c(F)ccc2cc(O)cc(-c3ncc4c(N5CC6CCC(C5)N6)nc(OC[C@@]56CCCN5C[C@H](F)C6)nc4c3F)c12 [MRTX1133] | – | – | more than 1000 times | increased | inhibited tumor growth | increased
3 | TJC4: anti-CD47 antibody with VH SEQ ID NO: 1, VL SEQ ID NO: 2 and human IgG4 Fc region comprising S228P substitution (antibody, V domains shown, human IgG4 Fc with S228P, no entry) VH: EVQLVESGGGLVKPGGSLRLSCAASGLTFERAWMNWVRQAPGKGLEWVGRIKRKTDGETTDYAAPVKGRFSISRDDSKNTLYLQMNSLKTEDTAVYYCAGSNRAFDIWGQGTMVTVSS VL: DIVMTQSPDSLAVSLGERATINCKSSQSVLYAGNNRNYLAWYQQKPGQPPKLLINQASTRASGVPDRFSGSGSGTEFTLIISSLQAEDVAIYYCQQYYTPPLAFGGGTKLEIK | did not demonstrate tumor growth inhibition | – | – | increased | weak inhibitory effect | increased
